Laboratory results taken from ChEMBL document CHEMBL1201862, “PubChem BioAssay data set” (2004).
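Protocol summary: plate cells (96-well), add compound at 5 concentrations, incubate 48 h, interpolate endpoints linearly. GI50 = concentration required for 50% inhibition of growth.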 The source made the active and inactive calls. Cut-off read from the data, not from the text of the source: active = GI50 up to about 1.1 µM and inactive = higher.

Columns and labels:
Assay in all cases: NCI-60 cell line screen, 48 h
[1] = test system: 786-0
[2] = test system: A498
[3] = test system: A549
[4] = test system: ACHN
[5] = test system: BT-549
[6] = test system: CAKI-1
[7] = test system: CCRF-CEM
[8] = test system: COLO 205
[9] = test system: DU-145
[10] = test system: EKVX
[11] = test system: HCT-116
[12] = test system: HCT-15
[13] = test system: HL-60
[14] = test system: HOP-62
[15] = test system: HOP-92
[16] = test system: HT-29
[17] = test system: Hs-578T
[18] = test system: IGROV-1
[19] = test system: K562
[20] = test system: KM12
[21] = test system: LOX IMVI
[22] = test system: M14
[23] = test system: MDA-MB-231
[24] = test system: MDA-MB-435
[25] = test system: MDA-N
[26] = test system: MOLT-4
[27] = test system: Malme-3M
[28] = test system: NCI-H226
[29] = test system: NCI-H23
[30] = test system: NCI-H460
[31] = test system: NCI-H522
[32] = test system: NCI/ADR-RES
[33] = test system: OVCAR-3
[34] = test system: OVCAR-5
[35] = test system: OVCAR-8
[36] = test system: PC-3
[37] = test system: RPMI-8226
[38] = test system: RXF 393
[39] = test system: SF-268
[40] = test system: SF-295
[41] = test system: SF-539
[42] = test system: SK-MEL-28
[43] = test system: SK-MEL-2
[44] = test system: SK-MEL-5
[45] = test system: SK-OV-3
[46] = test system: SN12C
[47] = test system: SNB-19
[48] = test system: SNB-75
[49] = test system: SW-620
[50] = test system: T47D
[51] = test system: TK-10
[52] = test system: U-251
[53] = test system: UACC-257
[54] = test system: UACC-62
[55] = test system: UO-31
[56] = test system: HCC 2998
[57] = test system: MCF7
[58] = test system: OVCAR-4

c1ccc(CC2(c3cc4ccccc4[nH]3)OCCO2)nc1 was tested, and the GI50 [1] was > 100 µM (inactive), the GI50 [2] was > 100 µM (inactive) and the GI50 [3] was > 100 µM (inactive). For the same compound, the GI50 [4] was > 100 µM (inactive), the GI50 [5] was > 100 µM (inactive) and the GI50 [6] was > 100 µM (inactive). The GI50 [7] was 83 µM (inactive), the GI50 [8] was > 100 µM (inactive) and the GI50 [9] was > 100 µM (inactive). The GI50 [10] was 92.3 µM (inactive), the GI50 [11] was > 100 µM (inactive) and the GI50 [12] was greater than 100 µM. The GI50 [13] was 72.3 µM (inactive), the GI50 [14] was > 100 µM (inactive) and the GI50 [15] was > 100 µM (inactive). For the same compound, the GI50 [16] was > 100 µM (inactive), the GI50 [17] was 51.5 µM (inactive) and the GI50 [18] was 1.95 µM (inactive). The GI50 [19] was 50.2 µM (inactive), the GI50 [20] was > 100 µM (inactive) and the GI50 [21] was 34.7 µM (inactive). The GI50 [22] was > 100 µM (inactive), the GI50 [23] was > 100 µM (inactive) and the GI50 [24] was > 100 µM (inactive). The GI50 [25] was > 100 µM (inactive), the GI50 [26] was 61.1 µM (inactive) and the GI50 [27] was 47.6 µM (inactive). The GI50 [28] was 18 µM (inactive), the GI50 [29] was > 100 µM (inactive) and the GI50 [30] was > 100 µM (inactive). The GI50 [31] was 70.8 µM (inactive), the GI50 [32] was > 100 µM (inactive) and the GI50 [33] was 90.6 µM (inactive). For the same compound, the GI50 [34] was > 100 µM (inactive), the GI50 [35] was > 100 µM (inactive) and the GI50 [36] was > 100 µM (inactive). For the same compound, the GI50 [37] was > 100 µM (inactive), the GI50 [38] was 88.1 µM (inactive) and the GI50 [39] was > 100 µM (inactive). The GI50 [40] was 58.1 µM (inactive), the GI50 [41] was > 100 µM (inactive) and the GI50 [42] was > 100 µM (inactive). For the same compound, the GI50 [43] was > 100 µM (inactive), the GI50 [44] was > 100 µM (inactive) and the GI50 [45] was > 100 µM (inactive). For the same compound, the GI50 [46] was > 100 µM (inactive), the GI50 [47] was > 100 µM (inactive) and the GI50 [48] was 12.1 µM (inactive). The GI50 [49] was > 100 µM (inactive), the GI50 [50] was > 100 µM (inactive) and the GI50 [51] was > 100 µM (inactive). For the same compound, the GI50 [52] was > 100 µM (inactive), the GI50 [53] was > 100 µM (inactive) and the GI50 [54] was > 100 µM (inactive). For the same compound, the GI50 [55] was > 100 µM (inactive).
With CN1c2ccccc2S(=O)(=O)n2c(CCc3ccccc3)nnc21 the GI50 [1] was 54.1 µM (inactive), the GI50 [2] was 39.1 µM (inactive) and the GI50 [3] was > 100 µM (inactive). For the same compound, the GI50 [4] was > 100 µM (inactive), the GI50 [5] was > 100 µM (inactive) and the GI50 [6] was 44.1 µM (inactive). For the same compound, the GI50 [7] was > 100 µM (inactive), the GI50 [8] was > 100 µM (inactive) and the GI50 [9] was > 100 µM (inactive). For the same compound, the GI50 [10] was > 100 µM (inactive), the GI50 [56] was > 100 µM (inactive) and the GI50 [11] was > 100 µM (inactive). For the same compound, the GI50 [12] was greater than 100 µM, the GI50 [13] was > 100 µM (inactive) and the GI50 [14] was 41.2 µM (inactive). For the same compound, the GI50 [15] was 37.8 µM (inactive), the GI50 [16] was > 100 µM (inactive) and the GI50 [17] was 79.4 µM (inactive). The GI50 [18] was > 100 µM (inactive), the GI50 [19] was > 100 µM (inactive) and the GI50 [20] was > 100 µM (inactive). For the same compound, the GI50 [21] was > 100 µM (inactive), the GI50 [22] was > 100 µM (inactive) and the GI50 [57] was > 100 µM (inactive). For the same compound, the GI50 [23] was > 100 µM (inactive), the GI50 [24] was > 100 µM (inactive) and the GI50 [25] was > 100 µM (inactive). For the same compound, the GI50 [26] was > 100 µM (inactive), the GI50 [28] was > 100 µM (inactive) and the GI50 [29] was > 100 µM (inactive). For the same compound, the GI50 [30] was 98.6 µM (inactive), the GI50 [31] was 43.9 µM (inactive) and the GI50 [32] was > 100 µM (inactive). For the same compound, the GI50 [33] was > 100 µM (inactive), the GI50 [58] was 82 µM (inactive) and the GI50 [34] was > 100 µM (inactive). For the same compound, the GI50 [35] was > 100 µM (inactive), the GI50 [36] was > 100 µM (inactive) and the GI50 [38] was > 100 µM (inactive). For the same compound, the GI50 [39] was > 100 µM (inactive), the GI50 [40] was 56.2 µM (inactive) and the GI50 [41] was > 100 µM (inactive). The GI50 [42] was > 100 µM (inactive), the GI50 [43] was > 100 µM (inactive) and the GI50 [44] was > 100 µM (inactive). The GI50 [45] was > 100 µM (inactive), the GI50 [46] was > 100 µM (inactive) and the GI50 [47] was > 100 µM (inactive). The GI50 [49] was > 100 µM (inactive), the GI50 [50] was > 100 µM (inactive) and the GI50 [51] was > 100 µM (inactive). For the same compound, the GI50 [52] was > 100 µM (inactive), the GI50 [53] was > 100 µM (inactive) and the GI50 [54] was > 100 µM (inactive). The GI50 [55] was > 100 µM (inactive).
